Results on 20 compounds are retold here after PubChem BioAssay AID328 (DTP/NCI, 2004).

Structures are written as SMILES. Values joined by “and” are separate entries in the source; they are usually repeats but may differ in a detail not shown here. Equal entries are not always repeated. Toxic doses and inconclusive results are not listed.

This test has as its system BDF1 mice, P388 leukemia ip, median survival T/C. Description: NCI In Vivo Anticancer Drug Screen. Data for tumor model P388 Leukemia (intraperitoneal) in B6D2F1 (BDF1) mice. Conditions: endpoint: median survival time, higher = longer survival. The gist of the method:
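In tumour-bearing mice, survival after compound treatment is set against the vehicle group and given as a quotient.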

The mark [1] stands for this setting: dose: 100.0 mg/kg/injection, schedule: Q01DX009 (ip), vehicle: Klucel (hydroxypropylcellulose) (HPC).
Where [2] appears, read: dose: 200.0 mg/kg/injection, schedule: Q01DX009 (ip), vehicle: Klucel (hydroxypropylcellulose) (HPC).
Setting [3] is: dose: 400.0 mg/kg/injection, schedule: Q01DX009 (ip), vehicle: Klucel (hydroxypropylcellulose) (HPC).
Setting [4] is: dose: 50.0 mg/kg/injection, schedule: Q01DX001 (ip), vehicle: saline with Tween-80.
Where [5] appears, read: dose: 50.0 mg/kg/injection, schedule: Q01DX009 (ip), vehicle: saline with Tween-80.
[6] abbreviates: dose: 100.0 mg/kg/injection, schedule: Q01DX009 (ip), vehicle: saline with Tween-80.
[7] abbreviates: dose: 100.0 mg/kg/injection, schedule: Q04DX003 (ip), vehicle: saline.
Setting [8] is: dose: 200.0 mg/kg/injection, schedule: Q01DX009 (ip), vehicle: saline with Tween-80.
The mark [9] stands for this setting: dose: 200.0 mg/kg/injection, schedule: Q04DX003 (ip), vehicle: saline.
[10] abbreviates: dose: 400.0 mg/kg/injection, schedule: Q04DX003 (ip), vehicle: saline.
Setting [11] is: dose: 50.0 mg/kg/injection, schedule: Q01DX009 (ip), vehicle: Klucel (hydroxypropylcellulose) (HPC).
Where [12] appears, read: dose: 100.0 mg/kg/injection, schedule: Q04DX003 (ip), vehicle: saline with Tween-80.
Where [13] appears, read: dose: 200.0 mg/kg/injection, schedule: Q04DX003 (ip), vehicle: saline with Tween-80.
Where [14] appears, read: dose: 400.0 mg/kg/injection, schedule: Q04DX003 (ip), vehicle: saline with Tween-80.

Consider `N#Cc1ccc(NC(=O)N(CCCl)N=O)cc1`, for which the T/C (dose: 0.29 mg/kg/injection, schedule: Q01DX009 (ip), vehicle: saline) is 122 % of control; the T/C (dose: 0.37 mg/kg/injection, schedule: Q01DX009 (ip), vehicle: Klucel (hydroxypropylcellulose) (HPC)) is 116 % of control; the T/C (dose: 0.44 mg/kg/injection, schedule: Q01DX009 (ip), vehicle: saline) is 122 % of control; the T/C (dose: 0.5 mg/kg/injection, schedule: Q04DX003 (ip), vehicle: Klucel (hydroxypropylcellulose) (HPC)) was 103 % of control; the T/C (dose: 0.8 mg/kg/injection, schedule: Q04DX003 (ip), vehicle: Klucel (hydroxypropylcellulose) (HPC)) was 107 % of control; the T/C (dose: 1.0 mg/kg/injection, schedule: Q01DX009 (ip), vehicle: saline) is 162 % of control. For the same compound, the T/C was 153 % of control and 202 % of control (dose: 1.56 mg/kg/injection, schedule: Q01DX009 (ip), vehicle: saline); 183 % of control (dose: 2.0 mg/kg/injection, schedule: Q04DX003 (ip), vehicle: Klucel (hydroxypropylcellulose) (HPC)); 187 % of control (dose: 3.0 mg/kg/injection, schedule: Q01DX009 (ip), vehicle: Klucel (hydroxypropylcellulose) (HPC)); 170 % of control (dose: 3.0 mg/kg/injection, schedule: Q04DX003 (ip), vehicle: Klucel (hydroxypropylcellulose) (HPC)); 175 % of control (dose: 3.12 mg/kg/injection, schedule: Q01DX009 (ip), vehicle: Klucel (hydroxypropylcellulose) (HPC)); 194 % of control (dose: 3.12 mg/kg/injection, schedule: Q01DX009 (ip), vehicle: saline). Further, the T/C (dose: 5.0 mg/kg/injection, schedule: Q04DX003 (ip), vehicle: Klucel (hydroxypropylcellulose) (HPC)) is 191 % of control and 200 % of control and 215 % of control; the T/C (dose: 6.25 mg/kg/injection, schedule: Q01DX009 (ip), vehicle: Klucel (hydroxypropylcellulose) (HPC)) is 204 % of control; the T/C (dose: 6.25 mg/kg/injection, schedule: Q01DX009 (ip), vehicle: saline) is 219 % of control; the T/C (dose: 8.0 mg/kg/injection, schedule: Q04DX003 (ip), vehicle: Klucel (hydroxypropylcellulose) (HPC)) was 185 % of control and 210 % of control; the T/C (dose: 12.0 mg/kg/injection, schedule: Q04DX003 (ip), vehicle: Klucel (hydroxypropylcellulose) (HPC)) is 245 % of control and 220 % of control; the T/C (dose: 12.5 mg/kg/injection, schedule: Q01DX009 (ip), vehicle: Klucel (hydroxypropylcellulose) (HPC)) was 100 % of control. In addition, the T/C by setting is: (dose: 12.5 mg/kg/injection, schedule: Q01DX009 (ip), vehicle: saline) 102 % of control; (dose: 12.5 mg/kg/injection, schedule: Q04DX003 (ip), vehicle: Klucel (hydroxypropylcellulose) (HPC)) 222 % of control; (dose: 18.0 mg/kg/injection, schedule: Q04DX003 (ip), vehicle: Klucel (hydroxypropylcellulose) (HPC)) 265 % of control and 110 % of control; (dose: 25.0 mg/kg/injection, schedule: Q04DX003 (ip), vehicle: Klucel (hydroxypropylcellulose) (HPC)) 109 % of control.
Regarding `CCOC(=O)CCC(NC(=O)Cc1ccc(NC(=O)C(F)(F)F)cc1)C(=O)OCC` (stereo not given), the T/C is, setting by setting: under setting [1], 100 % of control; under setting [2], 95 % of control; under setting [3], 104 % of control.
For `O=C(O)c1ccccc1Nc1ccc(Br)cc1`, the T/C by setting is: under setting [4], 100 % of control; (dose: 100.0 mg/kg/injection, schedule: Q01DX001 (ip), vehicle: saline with Tween-80) 91 % of control.
Take `O/N=c1/cc(-c2cccs2)ss1`: the T/C is, setting by setting: under setting [5], 109 % of control; under setting [6], 104 % of control; under setting [7], 117 % of control; under setting [8], 87 % of control; under setting [9], 118 % of control; (dose: 400.0 mg/kg/injection, schedule: Q01DX009 (ip), vehicle: saline with Tween-80) 97 % of control. For the same compound, the T/C under setting [10] is 124 % of control.
On to `O=C(Nc1ccc(C2=NCCCN2)cc1)c1ccc(NC(=O)c2ccc(C3=NCCCN3)cc2)cc1`, for which the T/C was 160 % of control and 168 % of control (dose: 13.2 mg/kg/injection, schedule: Q04DX003 (ip), vehicle: saline with Tween-80); 181 % of control and 220 % of control (dose: 20.0 mg/kg/injection, schedule: Q04DX003 (ip), vehicle: saline with Tween-80); 263 % of control and 300 % of control (dose: 30.0 mg/kg/injection, schedule: Q04DX003 (ip), vehicle: saline with Tween-80).
With `CNC(=S)N(N)c1ccccc1`, the T/C is, setting by setting: under setting [11], 108 % of control; under setting [1], 94 % of control; (dose: 100.0 mg/kg/injection, schedule: Q04DX003 (ip), vehicle: Klucel (hydroxypropylcellulose) (HPC)) 90 % of control; under setting [2], 95 % of control; (dose: 200.0 mg/kg/injection, schedule: Q04DX003 (ip), vehicle: Klucel (hydroxypropylcellulose) (HPC)) 95 % of control.
Regarding `O=C(N=Nc1c(O)[nH]c2ccccc12)C(=O)Nc1cccc(C(F)(F)F)c1`, under setting [5], the T/C was 87 % of control.
As to `CN(C)c1nn2c(-c3ccccc3)nnc2o1`, the T/C is 105 % of control under setting [9] and 120 % of control under setting [10].
For `C=C1CC2(CC(C)(C)CC(C)(C)C2)OC1=O`, the T/C under setting [12] was 97 % of control, the T/C under setting [13] was 112 % of control and the T/C under setting [14] is 106 % of control.
Regarding `NC(=O)c1ccc(N)nc1`, the T/C (dose: 6.25 mg/kg/injection, schedule: Q04DX003 (ip), vehicle: saline) is 121 % of control; the T/C (dose: 8.33 mg/kg/injection, schedule: Q04DX003 (ip), vehicle: saline with Tween-80) is 100 % of control; the T/C (dose: 12.5 mg/kg/injection, schedule: Q04DX003 (ip), vehicle: saline with Tween-80) is 100 % of control; the T/C (dose: 18.75 mg/kg/injection, schedule: Q04DX003 (ip), vehicle: saline with Tween-80) is 105 % of control and 108 % of control; the T/C (dose: 25.0 mg/kg/injection, schedule: Q04DX003 (ip), vehicle: saline) is 114 % of control.
On to `C#CCOCC(CCl)OC(N)=O` (stereo not given), for which the T/C was 110 % of control under setting [5]; 114 % of control under setting [6]; 110 % of control under setting [7]; 107 % of control under setting [8]; 120 % of control under setting [9].
Regarding `O=S(=O)(F)c1ccc2nc(-c3cccc(Sc4ccccc4)c3)cc(Cl)c2c1`, the T/C by setting is: under setting [12], 90 % of control; under setting [13], 100 % of control; under setting [14], 100 % of control.
Take `CC(=O)Nc1c(Cl)cc2c(c1Cl)Cc1cc(N=Cc3ccc4c(c3)OCO4)ccc1-2`: the T/C by setting is: (dose: 25.0 mg/kg/injection, schedule: Q01DX009 (ip), vehicle: Klucel (hydroxypropylcellulose) (HPC)) 90 % of control; under setting [11], 90 % of control; under setting [1], 86 % of control.
Turning to `CC(C)(C)c1ccc(S(=O)[O][Sn]([CH3])([CH3])[O]S(=O)c2ccc(C(C)(C)C)cc2)cc1` (stereo not given), the T/C is, setting by setting: (dose: 12.5 mg/kg/injection, schedule: Q01DX001 (ip), vehicle: Klucel (hydroxypropylcellulose) (HPC)) 110 % of control; (dose: 25.0 mg/kg/injection, schedule: Q01DX001 (ip), vehicle: Klucel (hydroxypropylcellulose) (HPC)) 113 % of control; (dose: 50.0 mg/kg/injection, schedule: Q01DX001 (ip), vehicle: Klucel (hydroxypropylcellulose) (HPC)) 116 % of control.
Take `CCN(CC)c1cc(Cl)c(C=O)cc1[N+](=O)[O-]`: the T/C under setting [1] was 95 % of control, the T/C under setting [2] was 104 % of control and the T/C under setting [3] is 95 % of control.
As for `Cc1ncc([N+](=O)[O-])n1CCSC(=N)N`, the T/C was 105 % of control under setting [12] and 105 % of control under setting [13].
On to `CCN1CCC(OC(=O)c2ccccc2)(c2nccc3ccccc23)CC1`, for which the T/C is, setting by setting: (dose: 12.5 mg/kg/injection, schedule: Q01DX009 (ip), vehicle: saline with Tween-80) 102 % of control; (dose: 25.0 mg/kg/injection, schedule: Q01DX009 (ip), vehicle: saline with Tween-80) 111 % of control; under setting [5], 124 % of control.
As to `O=P(c1ccccc1)(N1CC1)N1CC1`, the T/C is 109 % of control (dose: 7.5 mg/kg/injection, schedule: Q01DX009 (ip), vehicle: saline); 123 % of control (dose: 15.0 mg/kg/injection, schedule: Q01DX009 (ip), vehicle: saline); 119 % of control (dose: 30.0 mg/kg/injection, schedule: Q01DX009 (ip), vehicle: saline).
`COc1ccc2c3c1OC1CC(O)C=CC31CCN(C)C2` (stereo not given): the T/C (dose: 5.0 mg/kg/injection, schedule: Q01DX010 (ip), vehicle: carboxymethylcellulose (CMC)) is 100 % of control.
Regarding `CCCCCCCCCCCCCCCCOc1c(Br)cc(Br)cc1Br`, the T/C under setting [4] was 90 % of control.
